Test results as given in patent US20060205677A1 (XenoPort, Inc., priority 2005, published 2006).

Experiments:
[1] = system: Calu-6 cells; assay: In vitro cytotoxicity (Alamar blue growth inhibition), Calu-6; format: cell-based, human; conditions: Calu-6, 48 h
Procedure: (§1) The effect of experimental compounds on cancer cell growth and viability was measured in a panel of human cancer cells grown in vitro. All cancer cell lines were obtained from the American […]. Cells were maintained in the following media: TUR, H69AR, Calu-6, ME180, and PC3 cells were grown in RPMI medium containing 4.5 g/L glucose, 10% FBS, 4 mM L-glutamine, and 1 mM sodium pyruvate); and HT29 cells were grown in DMEM with 4.5 g/L glucose, 10% FBS, and 6 mM L-glutamine. All cells were grown at 37° C. in 5% CO2 and passaged bi-weekly.
(§2) For cytoxicity studies, cells were seeded into 96-well clear-bottom microtiter plates at the following densities: TUR (7,500 cells/well), HT29 (5,000 cells/well), H69AR (10,000 cells/well), Calu-6 (15,000 cells/well), and ME180 (2,500 cells/well). Cells were maintained at 37° C. with 5% CO2 for 24 hours prior to addition of various experimental compounds. Each condition was measured in triplicate. For compounds dissolved in DMSO, the final DMSO concentration in each well and in the non-drug treated control cells was constant and below 1% in all studies. The number of viable cells was determined after 24, 48, and 72 hours using Alamar blue fluorescence. Briefly, Alamar blue (10 mM) was added to each well for 4 hours, and the number of viable cells estimated by measuring the fluorescence of reduced Alamar blue (530 nm excitation, 590 nm emission). To correct for background fluorescence, cells were treated with 100% DMSO to eliminate all viable cells. The effect of drug on cell growth was determined by calculating the fraction of live cells treated with drug compared to untreated cells: (F1drug treated−F1DMSO killed)/(F1untreated−F1DMSO killed).

[2] = system: H69AR cells; assay: In vitro cytotoxicity (Alamar blue growth inhibition), H69AR; format: cell-based, human; conditions: 48 h
Procedure: as §1, §2

[3] = system: HT29 cells; assay: In vitro cytotoxicity (Alamar blue growth inhibition), HT29; format: cell-based, human; conditions: HT29, 48 h
Procedure: as §1, §2

[4] = system: ME180 cells; assay: In vitro cytotoxicity (Alamar blue growth inhibition), ME180; format: cell-based, human; conditions: ME180, 48 h
Procedure: as §1, §2

[5] = system: PC3 cells; assay: In vitro cytotoxicity (Alamar blue growth inhibition), PC3; format: cell-based, human; conditions: PC3, 48 h
Procedure: as §1, §2

[6] = system: TUR cells; assay: In vitro cytotoxicity (Alamar blue growth inhibition), TUR; format: cell-based, human; conditions: 48 h
Procedure: as §1, §2

[7] = system: HT29 cells; assay: Effect of sugar transport inhibitor (phloridzen) on in vitro cytotoxicity; format: cell-based, human; conditions: for GI50: 48 hours
Procedure: as §1, §2

[8] = system: PC3 (Prostate) xenograft; assay: In vivo tumor growth inhibition, mouse xenograft, PC3; parameters: species or system nude athymic CD-1 mice; conditions: 80 mg/kg (2/week), IP
Procedure: (§3) Tumor xenograft studies were performed using nude athymic CD-1 mice (Charles River Laboratories). Human cancer cells (5×10^6 PC3, 5×10^6 HT29, 10^7 Calu-6, and 5×10^6 ME180) were implanted in the hind flank of nude mice. Tumor growth was measured using calipers and tumor volume calculated using the formula: (width^2×(length/2)). Tumor volume was measured 3 days per week. Animal weight was measured 3 days per week to assess compound toxicity.
(§4) Compounds were tested for in vivo tumor growth inhibition as follows. Animals bearing tumors 100-200 mg were sorted into groups (5-8 animals) with similar average tumor mass per group. Drug doses were administered by intraperitoneal (IP) injection (0.5 mL). Test compounds were dissolved in phosphate buffered saline (PBS) and concentration adjusted for animal weight. Actual drug concentrations in formulated doses were verified by quantitative nitrogen detection. Animals were dosed every 7 days for 21 days in most studies. In several studies, animals were dosed twice weekly (days 0, 4, 7, 10, 14, etc.). Tumor volume and animal weight were measured on days 0, 2, 4, 7, 9, 11, 14, 16, 18, 21, 23, 25, and 28. […] Tumor volume at the end of the study was calculated as a percentage of the tumor volume on day 0. […]

[9] = system: HT29 (Colon) xenograft; assay: In vivo tumor growth inhibition, mouse xenograft, HT29; parameters: species or system nude athymic CD-1 mice; conditions: IP
Procedure: as §3
(§5) Compounds were tested for in vivo tumor growth inhibition as follows. Animals bearing tumors 100-200 mg were sorted into groups (5-8 animals) with similar average tumor mass per group. Drug doses were administered by intraperitoneal (IP) injection (0.5 mL). Test compounds were dissolved in phosphate buffered saline (PBS) and concentration adjusted for animal weight. Actual drug concentrations in formulated doses were verified by quantitative nitrogen detection. Animals were dosed every 7 days for 21 days in most studies. In several studies, animals were dosed twice weekly (days 0, 4, 7, 10, 14, etc.). Tumor volume and animal weight were measured on days 0, 2, 4, 7, 9, 11, 14, 16, 18, 21, 23, 25, and 28. At the end of the study, animal blood was removed for analysis of liver and kidney function (BUN, creatine, AST and ALT; analytical measurements performed by Quality Clinical Labs). Tumor volume at the end of the study was calculated as a percentage of the tumor volume on day 0. The percent tumor growth inhibition was obtained from the ratio of the percentage tumor volume increase in drug treated animals to the percentage tumor volume increase in saline treated animals.

[10] = system: Calu-6 (Lung) xenograft; assay: In vivo tumor growth inhibition, mouse xenograft, Calu-6; parameters: species or system nude athymic CD-1 mice; conditions: IP
Procedure: as §3, §5

[11] = system: ME180 (Cervical) xenograft; assay: In vivo tumor growth inhibition, mouse xenograft, ME180; parameters: species or system nude athymic CD-1 mice; conditions: IP
Procedure: as §3, §5

[12] = system: several different tumor types; assay: In vivo tumor growth inhibition, overall statement; parameters: species or system nude athymic CD-1 mice; conditions: mouse xenografts, compared with cisplatin, oxaliplatin, carboplatin
Procedure: as §3, §4

[13] = Determination of maximum tolerated dose (MTD); format: in vivo, nude mice
Procedure: To determine the maximum tolerated doses for compound (54) relative to clinically used platinum anticancer agents, nude mice were injected with increasing drug doses (0.5 mL, intraperitoneally) on days 0, 7, and 14. […] The therapeutic index of a given drug is defined as the ratio of the maximum tolerated dose to the minimally effective dose.

In the case of O=C(CCCC1C(=O)[O][Pt]2([NH]C3CCCCC3[NH]2)[O]C1=O)NCC1OC(O)C(O)C(O)C1O [(54), [1R,2R-Cyclohexanediamine-N,N′][{3-(α,β-D-Galactopyranos-6-ylamido)propyl}propanedioato(2-)-O,O′]Platinum (II)], the GI50 [1] is reported as 185 µM, the GI50 [2] is reported as 77 µM and the GI50 [3] is reported as 238 µM. For the same compound, the GI50 [4] was 15 µM, the GI50 [5] was 85 µM and the GI50 [6] was 9 µM. For the same compound, the GI50 ([7]; HT29, 0 mM phloridzen, read-out: GI50 of Uptake in HT29 Cells, 0 mM Phoridzen) was 385 µM, the GI50 ([7]; HT29, 0.2 mM phloridzen, read-out: GI50 of Uptake in HT29 Cells, 0.2 mM Phoridzen) was 574 µM and the GI50 ([7]; HT29, 0.5 mM phloridzen, read-out: GI50 of Uptake in HT29 Cells, 0.5 mM Phoridzen) was 759 µM. The GI50 ([7]; HT29, 1.0 mM phloridzen, read-out: GI50 of Uptake in HT29 Cells, 1.0 mM Phoridzen) was > 1000 µM, the “Effect of increasing concentrations of phloridzen on cytotoxic effects” value ([7]; HT29, 48 hours, in words) was “block the cytotoxic effects” and the “Percent Tumor Growth Inhibition PC3 (Prostate)” value [8] was 82%. The “Percent Tumor Growth Inhibition HT29 (Colon)” value ([9]; 75 mg/kg (2/week)) was 74%, the “Percent Tumor Growth Inhibition HT29 (Colon)” value ([9]; 100 mg/kg) was 63% and the “Percent Tumor Growth Inhibition Calu-6 (Lung)” value ([10]; 50 mg/kg (2/week)) was 73%. For the same compound, the “Percent Tumor Growth Inhibition Calu-6 (Lung)” value ([10]; 100 mg/kg) was 42%, the “Percent Tumor Growth Inhibition Calu-6 (Lung)” value ([10]; 500 mg/kg) was 81% and the “Percent Tumor Growth Inhibition ME180 (Cervical)” value ([11]; 50 mg/kg (2/week)) was 24%. For the same compound, the “Percent Tumor Growth Inhibition ME180 (Cervical)” value ([11]; 75 mg/kg (2/week)) was 24%, the “Percent Tumor Growth Inhibition ME180 (Cervical)” value ([11]; 100 mg/kg) was 18% and the “Percent Tumor Growth Inhibition ME180 (Cervical)” value ([11]; 500 mg/kg) was 68%. The “Inhibition of tumor growth in vivo, in words” value [12] was “effective in inhibiting growth of several different tumor types in vivo”, the “Therapeutic index relative to cisplatin, carboplatin, oxaliplatin, in words” value ([13]; in words) was “dramatically improved therapeutic index” and the “Therapeutic Index MTD/Min Eff” value ([13]; ratio of maximum tolerated dose to minimally effective dose) was 12.7.
